Measurements: the supplement of paper PMC11451515

What was measured:
Conditions in all cases: 48 h
[1] = tested on: NOMO1; assay: AUC of viability dose-response curve (% viability x log10 dose units); higher = less sensitive
In short: (§1)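 Viability of medium-adapted leukemia cells was measured by CellTiter-Glo One luminescence after 48 h at 37°C with library compounds in DMSO. Doses were 11 threefold steps from 47 μM to 0.79 nM, in 1536-well plates at 500 or 1000 cells/well. Signals were normalised per plate to DMSO and cell-free wells and fitted with a four-parameter log-logistic model on log10 dose. Area under the curve was integrated by trapezoidal rule, with curves exceeding full viability scaled and failed quality-control curves removed.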

[2] = tested on: P12-Ichikawa; assay: as above
In short: as §1

[3] = tested on: SEM cells; assay: as above
In short: as §1

[4] = tested on: SEM cells; assay: cell viability relative to DMSO control; higher = less cytotoxic
In short: (§2)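 Cells were incubated for 48 h at 37°C before CellTiter-Glo One luminescence was read. The cells were NOMO1 or SEM (500 cells/well) or P12-Ichikawa (1000 cells/well) leukemia cells, adapted for at least four passages in each medium and seeded in 1536-well plates (5 μl). Dosing used library compounds in DMSO applied by pin over 11 threefold points, 47 μM to 0.79 nM. Viability is the per-plate percentage of DMSO wells, with cell-free wells as background.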

[5] = tested on: NOMO1; assay: as above
In short: as §2

[6] = tested on: P12-Ichikawa; assay: as above
In short: as §2

Cc1cnc(Nc2ccc(F)cc2Cl)nc1-c1c[nH]c(C(=O)N[C@H](CO)c2cccc(Cl)c2)c1
AUC of viability dose-response curve
Conditions	[1]	[2]	[3]
HPLM + 10% dialyzed FBS	353	389	467
RPMI 5 mM glucose + 10% FBS	335	384	452
RPMI 5 mM glucose + 10% dialyzed FBS	364	411	443

[4], HPLM + 10% dialyzed FBS
Conditions	cell viability [%]
0.000781 µM	109
0.00234 µM	125
0.00702 µM	114
0.0211 µM	137
0.0632 µM	126
0.19 µM	134
0.569 µM	134
1.71 µM	125
5.12 µM	136
15.4 µM	121
46.1 µM	84.9

Cc1ccc2c(=O)c3cccc(CC(=O)O)c3oc2c1C
AUC of viability dose-response curve
Conditions	[1]	[2]	[3]
HPLM + 10% dialyzed FBS	435	471	447
RPMI 5 mM glucose + 10% FBS	471	464	440
RPMI 5 mM glucose + 10% dialyzed FBS	429	460	449

C[N]1N=C(C)C2=C1OC(=C(/C#N)C2C3=CC=C(C=C3)C(F)(F)F)/N (stereo unspecified)
AUC of viability dose-response curve
Conditions	HPLM + 10% dialyzed FBS	RPMI 5 mM glucose + 10% FBS	RPMI 5 mM glucose + 10% dialyzed FBS
[2]	457	467	454
[3]	467	438	439

Cc1coc2c1C(=O)C(=O)c1c-2ccc2c1CCCC2(C)C
AUC of viability dose-response curve
Conditions	[1]	[2]	[3]
HPLM + 10% dialyzed FBS	437	450	439
RPMI 5 mM glucose + 10% FBS	455	444	432
RPMI 5 mM glucose + 10% dialyzed FBS	450	438	421

cell viability [%]
Conditions	[4]	[5]	[6]
HPLM + 10% dialyzed FBS, 0.000781 µM	112	111	103
HPLM + 10% dialyzed FBS, 0.00234 µM	98.6	98.8	106
HPLM + 10% dialyzed FBS, 0.00702 µM	104	126	109
HPLM + 10% dialyzed FBS, 0.0211 µM	102	118	116
HPLM + 10% dialyzed FBS, 0.0632 µM	96.8	107	106
HPLM + 10% dialyzed FBS, 0.19 µM	97	105	104
HPLM + 10% dialyzed FBS, 0.569 µM	97.1	92.9	93
HPLM + 10% dialyzed FBS, 1.71 µM	102	95.5	93.2
HPLM + 10% dialyzed FBS, 5.12 µM	99.6	82	94
HPLM + 10% dialyzed FBS, 15.4 µM	85.2	105	94.8
HPLM + 10% dialyzed FBS, 46.1 µM	87.4	96.8	99.8
RPMI 5 mM glucose + 10% FBS, 0.000781 µM	112	89.8	96.6
RPMI 5 mM glucose + 10% FBS, 0.00234 µM	108	98.7	98.3
RPMI 5 mM glucose + 10% FBS, 0.00702 µM	107	96.8	97.9
RPMI 5 mM glucose + 10% FBS, 0.0211 µM	109	104	95.3
RPMI 5 mM glucose + 10% FBS, 0.0632 µM	101	116	91
RPMI 5 mM glucose + 10% FBS, 0.19 µM	99.6	103	92.1
RPMI 5 mM glucose + 10% FBS, 0.569 µM	104	99.9	95.4
RPMI 5 mM glucose + 10% FBS, 1.71 µM	95.8	83.5	88.6
RPMI 5 mM glucose + 10% FBS, 5.12 µM	97.1	83.5	91.5
RPMI 5 mM glucose + 10% FBS, 15.4 µM	79.9	95.1	89.4
RPMI 5 mM glucose + 10% FBS, 46.1 µM	80.7	90.8	87.9
RPMI 5 mM glucose + 10% dialyzed FBS, 0.000781 µM	96.7	97.4	95.5
RPMI 5 mM glucose + 10% dialyzed FBS, 0.00234 µM	99.7	104	97.8
RPMI 5 mM glucose + 10% dialyzed FBS, 0.00702 µM	102	95.7	103
RPMI 5 mM glucose + 10% dialyzed FBS, 0.0211 µM	97.4	98.9	93.7
RPMI 5 mM glucose + 10% dialyzed FBS, 0.0632 µM	90.3	103	96.5
RPMI 5 mM glucose + 10% dialyzed FBS, 0.19 µM	88	88.8	87.7
RPMI 5 mM glucose + 10% dialyzed FBS, 0.569 µM	82.6	88.4	87.3
RPMI 5 mM glucose + 10% dialyzed FBS, 1.71 µM	76	87.5	87.8
RPMI 5 mM glucose + 10% dialyzed FBS, 5.12 µM	75.1	88.4	83.4
RPMI 5 mM glucose + 10% dialyzed FBS, 15.4 µM	78.4	92.5	84.7
RPMI 5 mM glucose + 10% dialyzed FBS, 46.1 µM	84.3	93.1	92.2

CCCCN(CCCC)CC(O)c1cc(Cl)cc2c1-c1ccc(Cl)cc1/C2=C/c1ccc(Cl)cc1 (stereo unspecified)
AUC of viability dose-response curve
Conditions	[1]	[2]	[3]
HPLM + 10% dialyzed FBS	456	446	463
RPMI 5 mM glucose + 10% FBS	449	472	438
RPMI 5 mM glucose + 10% dialyzed FBS	461	448	434

cell viability [%]
Conditions	[4]	[5]	[6]
HPLM + 10% dialyzed FBS, 0.000781 µM	93.1	94.7	97.6
HPLM + 10% dialyzed FBS, 0.00234 µM	95.5	87.5	99.8
HPLM + 10% dialyzed FBS, 0.00702 µM	93.1	104	114
HPLM + 10% dialyzed FBS, 0.0211 µM	108	107	107
HPLM + 10% dialyzed FBS, 0.0632 µM	99	93.6	107
HPLM + 10% dialyzed FBS, 0.19 µM	107	107	111
HPLM + 10% dialyzed FBS, 0.569 µM	111	90.5	109
HPLM + 10% dialyzed FBS, 1.71 µM	105	97.9	117
HPLM + 10% dialyzed FBS, 5.12 µM	109	82.6	104
HPLM + 10% dialyzed FBS, 15.4 µM	104	95	121
HPLM + 10% dialyzed FBS, 46.1 µM	106	92.6	117
RPMI 5 mM glucose + 10% FBS, 0.000781 µM	80.9	83.3	98.6
RPMI 5 mM glucose + 10% FBS, 0.00234 µM	95.7	102	102
RPMI 5 mM glucose + 10% FBS, 0.00702 µM	85.6	94.6	107
RPMI 5 mM glucose + 10% FBS, 0.0211 µM	95.7	87.1	98
RPMI 5 mM glucose + 10% FBS, 0.0632 µM	95.1	105	102
RPMI 5 mM glucose + 10% FBS, 0.19 µM	98.4	86.9	117
RPMI 5 mM glucose + 10% FBS, 0.569 µM	94.6	87.5	104
RPMI 5 mM glucose + 10% FBS, 1.71 µM	89.9	90.7	113
RPMI 5 mM glucose + 10% FBS, 5.12 µM	98.6	104	97.5
RPMI 5 mM glucose + 10% FBS, 15.4 µM	91.2	94.9	109
RPMI 5 mM glucose + 10% FBS, 46.1 µM	78.9	97.8	82.5
RPMI 5 mM glucose + 10% dialyzed FBS, 0.000781 µM	88.9	104	83.9
RPMI 5 mM glucose + 10% dialyzed FBS, 0.00234 µM	94.4	91.8	99.7
RPMI 5 mM glucose + 10% dialyzed FBS, 0.00702 µM	89.3	93.7	101
RPMI 5 mM glucose + 10% dialyzed FBS, 0.0211 µM	89.6	104	107
RPMI 5 mM glucose + 10% dialyzed FBS, 0.0632 µM	78.9	99.4	96.9
RPMI 5 mM glucose + 10% dialyzed FBS, 0.19 µM	94.4	104	98.1
RPMI 5 mM glucose + 10% dialyzed FBS, 0.569 µM	94.5	102	97.5
RPMI 5 mM glucose + 10% dialyzed FBS, 1.71 µM	97.7	89.8	103
RPMI 5 mM glucose + 10% dialyzed FBS, 5.12 µM	101	95.4	104
RPMI 5 mM glucose + 10% dialyzed FBS, 15.4 µM	80.5	72.9	107
RPMI 5 mM glucose + 10% dialyzed FBS, 46.1 µM	91.3	103	107
